According to ChEMBL document CHEMBL1926634, “Structure-guided evolution of potent and selective CHK1 inhibitors through scaffold morphing” (J Med Chem, 2011):

molecular target: T1, Serine/threonine-protein kinase Chk1 (Homo sapiens, UniProt O14757)
T1 sequence (O14757 whole entry): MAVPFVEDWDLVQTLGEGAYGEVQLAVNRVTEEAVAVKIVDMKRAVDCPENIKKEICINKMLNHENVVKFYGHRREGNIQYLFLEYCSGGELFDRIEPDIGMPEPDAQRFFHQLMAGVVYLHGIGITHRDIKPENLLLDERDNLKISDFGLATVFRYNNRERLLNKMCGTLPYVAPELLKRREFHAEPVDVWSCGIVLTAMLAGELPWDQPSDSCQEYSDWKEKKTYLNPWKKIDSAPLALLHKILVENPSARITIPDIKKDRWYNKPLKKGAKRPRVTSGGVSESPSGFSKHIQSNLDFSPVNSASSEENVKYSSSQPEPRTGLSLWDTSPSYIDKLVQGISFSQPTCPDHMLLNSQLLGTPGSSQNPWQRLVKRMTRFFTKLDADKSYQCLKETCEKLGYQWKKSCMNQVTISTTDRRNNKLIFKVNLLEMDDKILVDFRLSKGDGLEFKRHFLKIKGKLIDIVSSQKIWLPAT
Description: Competitive inhibition of human CHK1 using ATP as substrate by DELFIA

Compound | IC50
NCCCNc1ncnc2[nH]c3cnccc3c12 | 1.7 µM
N#Cc1cnc(Nc2cc(NCC3CCOCC3)ncn2)cn1 | 20 µM
NC1CCN(c2ncnc3[nH]c4cnccc4c23)CC1 | 0.67 µM
N#Cc1cccc(-c2c[nH]c3ncnc(N4CCOC(CN)C4)c23)c1 (configuration not stated) | 3.2 µM
NCC1CCN(c2cc(Nc3cnccn3)ncn2)CC1 | 22 µM
c1cncc(Nc2cc(NCC3CCNCC3)ncn2)c1 | 122 µM
NCC1CCN(c2ncnc3[nH]c4cnccc4c23)CC1 | 0.29 µM
